Measured values taken from US8466127B2, “Pegylated and fatty acid grafted chitosan oligosaccharide, synthesis method and application for drug delivery system” (Zhejiang University, priority 2008, dated 2013).
Converted amounts (≈) assume the structure as drawn. Like-named read-outs stand apart in the source and are kept apart here. Blank lines part the entries; values can stand above or below the compound they belong to.

How the values were obtained:
[1] = system: hepatoma cell HepG2; test: MTT assay, mitomycin C preparations; assay type: cell-based; conditions: HepG2, 48 h, mitomycin C solution or mitomycin C-loaded micelle of the named carrier
Protocol: Cell survival rate was determined by MTT assay. […] After incubation for 48 h, 60 μL of MTT solution was added to each well followed by incubation for 4 h. After that, the supernatant was discarded, and the cells were washed twice with PBS solution, prior to adding 400 μL DMSO to each well to terminate the reaction. After the culture plates were given a horizontal vibration for 10 min, the absorbance at the wavelength of 570 nm was measured in ELSA meter, and the cell survival rate was calculated according to the following formula: Cell survival rate(%)=A570(sample)/A570(control)×100% Wherein, A570 (sample) is the absorbance of cells adding with free drug or drug-loaded micelle, A570 (control) is the absorbance of control cells.

[2] = system: human lung cancer cell A549; test: MTT assay, paclitaxel and hydroxycamptothecin preparations; assay type: cell-based; conditions: A549, 48 h
Protocol: Specifically, the human lung cancer cell A549 used as the model was cultured in 96-well culture plate. 100 μL cell culture solution containing 5×10^3 A549 cells was added to each well and cultured for 24 h in 37° C., 5% CO2 incubator. […] A repeated well of each above group was set. The cells were cultured in normal DMEM medium for 48. After 20 μL of 5 mg/mL methylthiazoletetrazolium (MTT) solution was added to each well, the cells was re-cultured in 37° C., 5% CO2 incubator for 4 h, and then the supernatant was discarded. By adding 150 μL dimethyl sulfoxide to each well, a multi-functional microplate reader was used to measure the absorbance, and then the cell inhibition ratio was calculated according to the following formula: Cell inhibition ratio %=(absorbance of control group−absorbance of experimental group)/absorbance of control group×100%

[3] = system: uterine cervix cancer cell Hela; test: MTT assay, adriamycin preparation; assay type: cell-based; conditions: Homo sapiens, 48 h
Protocol: Subsequently, the solution was transferred into a volumetric flask to set the total volume to 50 mL with distilled water, and then 1 mg/mL micelle solution was obtained. […] After stirred at room temperature for 3 h, the solution was dialyzed for 24 h with distilled water in dialysis bag with the molecular weight of 3,500. Then the dialysis concentrate solution was centrifuged at 5000 rpm for 5 min to remove the dialyzed hydrophobic anticancer drugs.
Subsequently, the evaluation of antitumor efficacy was conducted. Specifically, the uterine cervix cancer cell Hela used as the model was cultured in 96-well culture plate. 100 μL cell culture solution containing 5×10^3 Hela cells was added to each well and cultured for 24 h in 37° C., 5% CO2 incubator. […] A repeated well of each above group was set. The cells were cultured in normal DMEM medium for 48. After 20 μL of 5 mg/mL methylthiazoletetrazolium (MTT) solution was added to each well, the cells was re-cultured in 37° C., 5% CO2 incubator for 4 h, and then the supernatant was discarded. By adding 150 μL dimethyl sulfoxide to each well, a multi-functional microplate reader was used to measure the absorbance, and then the cell inhibition ratio was calculated according to the following formula: Cell inhibition ratio(%)=(absorbance of control group−absorbance of experimental group)/absorbance of control group×100%

[4] = system: drug-resistant cell (MCF-7-adr); test: MTT assay, adriamycin preparation, drug-resistant cells; assay type: cell-based; conditions: Homo sapiens, NCI/ADR-RES, 48 h
Protocol: (§1) Specifically, the breast carcinoma cell (MCF-7) and its drug-resistant cell (MCF-7-adr) used as the model cells were cultured in 96-well culture plate. 100 μL culture solution containing 5×10^3 MCF-7 or MCF-7-adr cells was added to each well and cultured for 24 h in 37° C., 5% CO2 incubator. […] A repeated well of each above group was set. The cells were cultured in normal DMEM medium for 48. After 20 μL of 5 mg/mL methylthiazoletetrazolium (MTT) solution was added to each well, the cells was re-cultured in 37° C., 5% CO2 incubator for 4 h, and then the supernatant was discarded. By adding 150 μL dimethyl sulfoxide to each well, a multi-functional microplate reader was used to measure the absorbance, and then the cell inhibition ratio was calculated according to the following formula: Cell inhibition ratio %=(absorbance of control group−absorbance of experimental group)/absorbance of control group×100%

[5] = system: QGY tumor; test: In vivo gene therapy, tumor inhibition; conditions: Nude mouse with QGY tumor, 2 mg/kg once, successive administration for 7 days
Protocol: PEDF was taken as the theoretical gene, and the drug-loaded graft micelle was prepared.

[6] = system: breast carcinoma cell (MCF-7); test: MTT assay, adriamycin preparation, sensitive cells; assay type: cell-based; conditions: Homo sapiens, MCF7, 48 h
Protocol: as §1

[7] = system: ovarian cancer cell SKOV-3; test: MTT assay, paclitaxel preparation, sensitive cells; assay type: cell-based; conditions: Homo sapiens, SK-OV-3, 48 h
Protocol: as §1, with “ovarian cancer” for “breast carcinoma”, “SKOV-3” for “(MCF-7)”, “SKOV-3/ST30” for “(MCF-7-adr)”, “SKOV-3” for “MCF-7”, “SKOV-3/ST30” for “MCF-7-adr”

[8] = system: drug-resistant cell SKOV-3/ST30; test: MTT assay, paclitaxel preparation, drug-resistant cells; assay type: cell-based; conditions: Homo sapiens, SK-OV-3, 48 h
Protocol: as §1, with “ovarian cancer” for “breast carcinoma”, “SKOV-3” for “(MCF-7)”, “SKOV-3/ST30” for “(MCF-7-adr)”, “SKOV-3” for “MCF-7”, “SKOV-3/ST30” for “MCF-7-adr”

Structure (SMILES): CO[C@@]12[C@H](COC(N)=O)C3=C(C(=O)C(C)=C(N)C3=O)N1C[C@@H]1N[C@@H]12 [Control example, mitomycin C]
- IC50 [1]: 1.97 µg/mL (≈ 5.89 µM)

Structure (SMILES): CC[C@@]1(O)C(=O)OCc2c1cc1n(c2=O)Cc2cc3cc(O)ccc3nc2-1 [hydeoxycamptothecin injection, hydroxycamptothecin]
- IC50 [2]: 8.6 µg/mL (≈ 23.6 µM)

- IC50 [3]: 1.7 µg/mL (≈ 3.13 µM)
- IC50 [4]: 24.8 µg/mL (≈ 45.6 µM)
- IC50 [6]: 0.48 µg/mL (≈ 0.883 µM)
Structure (SMILES): COc1cccc2c1C(=O)c1c(O)c3c(c(O)c1C2=O)C[C@@](O)(C(=O)CO)C[C@@H]3O[C@H]1C[C@H](N)[C@H](O)[C@H](C)O1 [adriamycin solution, adriamycin]
- tumor inhibition ratio (positive control) [5]: 78.85%

- IC50 ([2]; MTT, read-out: IC50): 3.2 µg/mL (≈ 3.75 µM)
- IC50 [7]: 0.45 ± 0.05 µg/mL (≈ 0.527 µM)
- IC50 [8]: 10.2 ± 0.23 µg/mL (≈ 12 µM)
Structure (SMILES): CC(=O)O[C@H]1C(=O)[C@@]2(C)[C@H]([C@H](OC(=O)c3ccccc3)[C@]3(O)C[C@H](OC(=O)[C@H](O)[C@@H](NC(=O)c4ccccc4)c4ccccc4)C(C)=C1C3(C)C)[C@]1(OC(C)=O)CO[C@@H]1C[C@@H]2O [taxol solution, paclitaxel]
